# Data published in patent US7915402B2, “Antioxidant inflammation modulators: oleanolic acid derivatives with saturation in the C-ring” (Reata Pharmaceuticals, Inc., priority 2008, dated 2011).
# Where two headings read alike, the source gives them in different places.
# Experiments:
# HO-1 = assay: Nrf2 target gene induction, HO-1 mRNA (qPCR); assay type: cell-based, human; conditions: MDA-MB-435 cells, 250 nM; fold induction above DMSO control
# Experimental: (§1) FIGS. 17-20. Induction of HO-1. MDA-MB-435 human melanoma cells were treated with vehicle (DMSO) or the indicated compounds and concentrations for 16 hours. HO-1 mRNA levels were quantified using qPCR and were normalized relative to a DMSO-treated sample run in parallel. Values are averages of duplicate wells.
# as §1, with “FIG. 21.” for “FIGS. 17-20.”, “HO-1, TrxR1 and γ-GCS.” for “HO-1.”, “HO-1, thioredoxin reductase-1 (TrxR1), and γ-glutamylcysteine synthetase (γ-GCS)” for “HO-1”
# as §1, with “Nrf2 target gene induction.” for “FIGS. 17-20. Induction of HO-1.”, “HO-1, thioredoxin reductase-1 (TrxR1), γ-glutamylcysteine synthetase (γ-GCS), and ferritin heavy chain” for “HO-1”, “wells. Primer sequences are as follows.” for “wells.”
# [1] = test system: thioredoxin reductase-1 (TrxR1); assay: Nrf2 target gene induction, TrxR1 mRNA (qPCR); assay type: cell-based, human; conditions: MDA-MB-435 cells, 16 hours
# Experimental: as §1, with “FIG. 21.” for “FIGS. 17-20.”, “HO-1, TrxR1 and γ-GCS.” for “HO-1.”, “HO-1, thioredoxin reductase-1 (TrxR1), and γ-glutamylcysteine synthetase (γ-GCS)” for “HO-1”
# as §1, with “FIG. 22.” for “FIGS. 17-20.”, “TrxR1.” for “HO-1.”, “Thioredoxin reductase-1 (TrxR1)” for “HO-1”, “wells. Compounds 401, 402-19 and 402-53 are comparison compounds (see Example 1).” for “wells.”
# as §1, with “Nrf2 target gene induction.” for “FIGS. 17-20. Induction of HO-1.”, “HO-1, thioredoxin reductase-1 (TrxR1), γ-glutamylcysteine synthetase (γ-GCS), and ferritin heavy chain” for “HO-1”, “wells. Primer sequences are as follows.” for “wells.”
# [2] = test system: γ-glutamylcysteine synthetase (γ-GCS); assay: Nrf2 target gene induction, γ-GCS mRNA (qPCR); assay type: cell-based, human; conditions: MDA-MB-435 cells
# Experimental: as §1, with “FIG. 21.” for “FIGS. 17-20.”, “HO-1, TrxR1 and γ-GCS.” for “HO-1.”, “HO-1, thioredoxin reductase-1 (TrxR1), and γ-glutamylcysteine synthetase (γ-GCS)” for “HO-1”
# as §1, with “FIG. 23.” for “FIGS. 17-20.”, “γ-GCS.” for “HO-1.”, “γ-glutamylcysteine synthetase (γ-GCS)” for “HO-1”
# as §1, with “Nrf2 target gene induction.” for “FIGS. 17-20. Induction of HO-1.”, “HO-1, thioredoxin reductase-1 (TrxR1), γ-glutamylcysteine synthetase (γ-GCS), and ferritin heavy chain” for “HO-1”, “wells. Primer sequences are as follows.” for “wells.”
# NQO1 = assay: Nrf2 target gene induction, NQO1; assay type: cell-based, human; conditions: MDA-MB-435 cells, 250 nM; fold induction above DMSO control
# [3] = Plasma pharmacokinetics after oral dosing in rats; assay type: in vivo, Sprague Dawley rats; conditions: SD rats, oral gavage
# Experimental: Compound 404-02 reaches high concentrations in the lung and CNS of rats following oral dosing: To assess basic pharmacokinetic parameters following oral dosing, 9 male and 9 female Sprague Dawley (SD) rats were administered 404-02 at 1, 10 or 50 mg/kg doses via oral gavage. Doses were prepared in sesame oil and individualized to body weight on the day of dosing. Blood was drawn at 0, 1, 2, 4, 8 and 24 hours post-dose on days 1 and 15. Blood was collected from the orbital sinus after carbon dioxide/oxygen inhalation for determination of 404-02 plasma concentrations. Plasma was transferred to cryovials and stored at −80° C. until processing and LC-MS/MS analysis. A standard curve was derived for 404-02 in rat plasma, and quantification of experimental results was based on this standard curve.
# Pharmacokinetic parameters were obtained using non-compartmental analysis, WinNonlin™ version 5.2.
# [4] = Aqueous solubility determination (Multiscreen solubility filter plate, UV/vis); assay type: physicochemical; conditions: universal aqueous buffer, pH 7.4, aqueous buffer, kinetic from dmso stock, universal aqueous buffer pH 7.4, 90 min, room temperature
# Experimental: Aqueous Solubility Determination. The following procedure was used to obtain the aqueous solubility results summarized in Example 8. Step 1. Determination of optimal UV/vis wavelengths and generation of standard curves for a compound of interest: • (1) For eight standard calibration curves (one plate), prepare 34 mL of 50:50 (v:v) universal buffer:acetonitrile in a 50 mL tube. • (2) Using a multichannel pipet, dispense (in μL) the buffer:acetonitrile in a deep well plate as follows:
# • (6) Cover plate with lid and shake (200-300 rpm) at room temperature for 20 minutes. • (7) Mix all wells by pipetting up and down 10 times. • (8) Transfer 120 μL from each well to a UV transparent plate. Cover and shake for 3-5 minutes. Remove any bubbles in the wells using a pipet. • (9) Read from 220 nm to 500 nm at 10 nm increments on a spectrophotometer (e.g., SpectraMax®).
# Step 2. Compound Solubility Testing Procedures Using the Millipore™ Multiscreen® Solubility Filter Plate.
# Universal Aqueous Buffer: • (a) To prepare 500 mL of universal buffer, add the following: 250 mL Nanopure water; 1.36 mL (45 mM) ethanolamine; 3.08 g (45 mM) potassium dihydrogen phosphate; 2.21 g (45 mM) potassium acetate; thoroughly mix. • (b) Adjust pH to 7.4 with HCl and q.s. to 500 mL with 0.15 M KCl. • (c) Filter to remove particulates and reduce bacterial growth. • (d) Store at 4° C. in the dark.
# Solubility Protocol: • (a) Add 285 μL of Universal Aqueous Buffer to desired wells of the Millipore™ Multiscreen® Solubility filter plate. • (b) Add 15 μL of 10 mM compound in DMSO to the appropriate wells. Add 15 μL of 100% DMSO only to 6 wells of the filter plate for blanks. • (c) Using a multichannel pipet, mix wells by pipetting up and down 10 times. Be careful not to touch the filters in the plate with the tips. • (d) Cover and gently shake (200-300 rpm) filter plate for 90 minutes at room temperature. • (e) Vacuum filter the aqueous solution from the Multiscreen® solubility filter plate into a polypropylene V-bottom plate. • (f) Transfer 60 μL of filtrate to a UV transparent plate (Greiner® UV-Star Analysis Plate). • (g) Add 60 μL of acetonitrile to each well and mix by pipetting up and down 10 times. • (h) Cover and gently shake for 3-5 minutes. Remove any bubbles with a pipet. • (i) Measure the absorbance of each well in the plate on the spectrophotometer (UV/vis) at the desired wavelength. For compounds in a plate with different absorbance peaks, set the spectrophotometer to read a spectrum (e.g., from 220 nm to 460 nm). • (j) Identify concentration using measured absorbance for each compound and the predetermined standard curve (see Step 1).
# mice = conditions: sesame oil, N=4
# [5] = 1 mg/kg/day, day 1, n=9/sex/dose level
# [6] = 1 mg/kg/day, day 15, n=9/sex/dose level
# [7] = 10 mg/kg/day, day 1, n=9/sex/dose level
# [8] = 10 mg/kg/day, day 15, n=9/sex/dose level
# [9] = 50 mg/kg/day, day 1, n=9/sex/dose level
# [10] = 50 mg/kg/day, day 15, n=9/sex/dose level
compound,measurement,setting,value
"CC1(C)CC[C@]2(C(=O)NCC(F)(F)F)CC[C@]3(C)[C@H](C(=O)C[C@@H]4[C@@]5(C)C=C(C#N)C(=O)C(C)(C)[C@@H]5CC[C@]43C)[C@@H]2C1 [Compound 63102, (4aS,6aR,6bR,8aR,12aR,12bR,14aR,14bS)-11-cyano-2,2,6a,6b,9,9,12a-heptamethyl-10,14-dioxo-N-(2,2,2-trifluoroethyl)-1,2,3,4,4a,5,6,6a,6b,7,8,8a,9,10,12a,12b,13,14,14a,14b-icosahydropicene-4a-carboxamide]",HO-1 induction,HO-1,3 fold
same,"TrxR1 mRNA induction: concentration needed compared with unsaturated counterpart (402, 404)",[1],higher concentrations
same,γ-GCS induction,"[2]; 250 nM, fold induction above DMSO control",4.5 fold
same,"γ-GCS mRNA induction: concentration needed compared with unsaturated counterpart (402, 404)",[2]; 16 hours,higher concentrations
same,NQO1 induction,NQO1,2 fold
same,Mean Maximum 404-02 Plasma Concentration (nM) ± SEM,[3]; [5],5.7 ± 1.1 nM
same,Mean Maximum 404-02 Plasma Concentration (ng/mL) ± SEM,[3]; [5],3.3 ± 0.65 ng/mL
same,Mean Maximum 404-02 Plasma Concentration (nM) ± SEM,[3]; [6],11.0 ± 1.6 nM
same,Mean Maximum 404-02 Plasma Concentration (ng/mL) ± SEM,[3]; [6],6.3 ± 0.9 ng/mL
same,Mean Maximum 404-02 Plasma Concentration (nM) ± SEM,[3]; [7],116 ± 28.7 nM
same,Mean Maximum 404-02 Plasma Concentration (ng/mL) ± SEM,[3]; [7],66 ± 16.5 ng/mL
same,Mean Maximum 404-02 Plasma Concentration (nM) ± SEM,[3]; [8],210 ± 42.3 nM
same,Mean Maximum 404-02 Plasma Concentration (ng/mL) ± SEM,[3]; [8],144 ± 24.3 ng/mL
same,Mean Maximum 404-02 Plasma Concentration (nM) ± SEM,[3]; [9],1241 ± 171 nM
same,Mean Maximum 404-02 Plasma Concentration (ng/mL) ± SEM,[3]; [9],713 ± 98.2 ng/mL
same,Mean Maximum 404-02 Plasma Concentration (nM) ± SEM,[3]; [10],1966 ± 199 nM
same,Mean Maximum 404-02 Plasma Concentration (ng/mL) ± SEM,[3]; [10],1129 ± 114 ng/mL
same,solubility at 90 min,[4],0.06 µM
same,Number of Deaths,"mice; oral gavage QDx14, 10 mg/kg",0
same,Number of Deaths,"mice; oral gavage QDx14, 50 mg/kg",0
same,Number of Deaths,"mice; oral gavage QDx14, 100 mg/kg",0
same,Number of Deaths,"mice; oral gavage QDx14, 250 mg/kg",0
